Assay results from PMC5601180, “Uptake and metabolism of sulphated steroids by the blood–brain barrier in the adult male rat” (Journal of Neurochemistry, 2017).

Columns and labels:
[1] = TLC analysis of 3H-steroid metabolites in brain fractions after perfusion; format: in vivo, rat; settings: after 0.5 min perfusion with the 3H-steroid sulphate
From the text: For the analysis of ^3H‐steroid metabolites, samples were spotted onto TLC plates for chromatography in the following solvent systems: A (for sulphated steroids), ethyl acetate:ethanol:ammonia (5 : 5 : 1, v/v); B (for free steroids) cyclohexane:n‐butyl acetate (1 : 2, v/v); C (for acetylated steroids), isooctane:ethyl acetate (13 : 7, v/v). Non‐radioactive steroid standards could be visualised by exposure to iodine vapour whereas the ^3H‐steroids were detected by placing the TLC plates in contact with imaging film for subsequent visualisation in a phosphorimager. Additional analysis of the steroid sulphates employed elution from the TLC plate in ammoniated ethanol then drying down and redissolving in sodium acetate buffer, 0.5 M, pH 5.0 for desulphation by incubation with Helix sulphatase (1 mg/mL, 40°C overnight followed by 55°C for 3 h). The resulting free steroids were adsorbed onto a 60 mg Oasis HLB® cartridge and eluted in 5 mL ethyl acetate. This eluate was dried down and analysed by TLC as above for free steroids. Further identification of ^3H‐steroid metabolites was obtained by acetylating them alongside both ^3H‐labelled and non‐radioactive standards. The TLC eluates or standards were dried down and redissolved in 200 μL pyridine. An equal volume of acetic anhydride was then added followed by incubation at 37°C for 2 h. […]

[2] = Bilateral brain perfusion, capillary depletion and separation of free and sulphated 3H-steroids; format: in vivo, rat
Description: Brains were bilaterally perfused for 0.5 min with ^3H‐labelled DHEAS 1.25 or 6.0 μCi (0.046 or 0.221 MBq)/mL (13.5 or 64.9 nM) or PregS 1.0 μCi (0.037 MBq)/mL (47.6 nM). The hindbrain was removed and each hemisphere homogenised in 2 vols (w/v) buffer containing (in mM) NaCl 141, KCl 4, NaH2PO4 1, CaCl2 2.8, MgCl2 1, HEPES 10, D‐glucose 10, pH 7.4. A sample of the homogenate of the whole right hemisphere was removed for scintillation counting, and the remainder retained as the whole brain homogenate.
The left hemisphere homogenate was separated into capillary‐enriched and capillary‐depleted fractions by the method of Triguero et al. (1990). For this, an equal volume of 26% dextran (w/w) solution was added to the homogenate and a sample taken for liquid scintillation counting before centrifugation at 5300 g for 15 min at 4°C. The upper layer was taken as the capillary‐depleted fraction and the pellet as the capillary‐enriched fraction.
Before extraction, fractions were sonicated in 5 vols ice‐cold, 5 mM potassium phosphate buffer, pH 7. Small portions (150 μL) were removed for measurement of protein content (Bradford 1976) and total radioactivity. For the latter, homogenate was solubilised (15 min, 20°C) in 10 vols Soluene then bleached (2 h, 50°C) with 0.3 vol hydrogen peroxide before counting in Ecoscint H containing Triton X‐100 (6% v/v), glacial acetic acid (0.6% v/v) and butylated hydroxytoluene (2% w/v). The remainder of each homogenate was extracted as described in detail elsewhere (Ebner et al. 2006; Sujkovic et al. 2009), to give free steroid and steroid sulphate fractions. First, homogenates were extracted into 20 vols ethanol containing acetic acid 3% (v/v). After centrifugation (28 000 g, 30 min, 25°C) to remove denatured protein, the extracts were delipidated by partitioning three times against 10 vols isooctane. Extracts were dried down under vacuum and redissolved in ethanol, which was then diluted to 20% v/v in 5 mM potassium phosphate buffer, pH 7.0 at a total volume of 20 ml. Separation of free and sulphated steroids was achieved by passage through a 60 mg Oasis MAX® cartridge. After washing the cartridge with 5 mL ethanol at 20% v/v in ammonium acetate (20 mM, pH 7), free steroids were eluted in 4 mL ethyl acetate. Passage of 20 mL ethanol at 60% v/v in formate/pyridine buffer (20 mM, pH 3) eluted any steroid glucuronides present. Finally, steroid sulphates were eluted in 30 mL 60% v/v ethanol containing ammonium carbonate 1% (w/v). To measure the radioactivity of each fraction, portions were dried down and then redissolved in Ecoscint H for counting. The remainder was dried down, redissolved in ethanol 96% v/v and stored at −20°C for subsequent analysis by TLC.

[3] = Rat brain perfusion in situ: uptake of 3H-steroid sulphates and markers (Vd, Kin, PS); settings: for K in, unidirectional transfer coefficient / PS, permeability–surface area product: 0.5 min perfusion; for K in, unidirectional transfer coefficient: corrected for vascular space (sucrose Vd), mean ± SEM, n ≥ 3; for PS, permeability–surface area product: from K in by Renkin–Crone equation with diazepam K in as flow
Description: Each animal also received intraperitoneal heparin, 10 000 U/kg. Body temperature was maintained at 37°C with a heating pad.
For analysis of free and sulphated steroids and for steryl‐sulfate sulfohydrolase (EC 3.1.6.2; trivial name steroid sulphatase) assays, both hemispheres were perfused, via right and left common carotid arteries, and 0.8 mM MgCl2 replaced 0.8 mM MgSO4 in the solution. The perfusate was delivered at a constant rate of 6 mL/min for hemi‐perfusions and 12 mL/min for bilateral perfusions, maintaining a net perfusion pressure of 40–70 mm Hg.
The remaining tissue of the right hemisphere was homogenised and samples (~50 mg) taken in triplicate (“remainder samples”). Triplicate samples of the perfusate were also taken. Samples were weighed into vials and dissolved (48 h at 20°C) in 0.5 mL Solvable before addition of 4.5 mL Optiphase 2 scintillation fluid for counting of radioactivity.
Brain uptake was calculated as a volume of distribution V d, where V d (μL/g) = (dpm/g tissue)/(dpm/μL perfusate). The unidirectional transfer coefficients, (K in, μL/g/min), for DHEAS and for PregS were calculated from the V d at 0.5 min, corrected with the V d for the vascular space marker sucrose.

[4] = after 0.5 min bilateral perfusion, mean ± SEM, n = 5

## CC(=O)[C@H]1CCC2C3CC=C4C[C@@H](OS(=O)(=O)O)CC[C@]4(C)C3CC[C@@]21C (some centres unmarked) [PregS, pregnenolone sulphate]
[1]
  metabolism in brain fractions: no further metabolism of PregS beyond the liberation of free steroid pregnenolone
[2]; [4]
  radioactivity in capillary fraction: 1856 ± 245 dpm/mg protein
  radioactivity in parenchyma fraction: 1988 ± 328 dpm/mg protein
  recovery of total homogenate radioactivity into capillary fraction: 8.8 ± 1.8%
  recovery of total homogenate radioactivity into parenchyma fraction: 68.0 ± 10.0%
[2]; after 0.5 min perfusion, Fig. 4, p < 0.02
  percentage of 3H-label as free steroid, parenchyma versus capillary: significantly higher percentage of the free steroid in the parenchyma than in the brain capillaries
[2]; within 0.5 min of uptake, brain perfusion in situ
  desulphation on uptake into brain: > 50%
[3]; Cerebellum
  K in, unidirectional transfer coefficient: 256.8 ± 43.7 µL/g/min
  PS, permeability–surface area product: 392.6 ± 103.4 µL/g/min
[3]; Hippocampus
  K in, unidirectional transfer coefficient: 292.1 ± 24.2 µL/g/min
  PS, permeability–surface area product: 303.5 ± 26.0 µL/g/min
[3]; Hypothalamus
  K in, unidirectional transfer coefficient: 277.6 ± 48.8 µL/g/min
  PS, permeability–surface area product: 295.8 ± 54.8 µL/g/min
[3]; Medulla
  K in, unidirectional transfer coefficient: 196.4 ± 39.5 µL/g/min
  PS, permeability–surface area product: 328.6 ± 117.5 µL/g/min
[3]; PS from K in as slope of Vd against time 0.25 to 0.5 min, implies net efflux
  position of log PS in plot against cLog Poct relative to the line for passively permeating compounds: below the 95% confidence limits of the line of best fit for passively permeating compounds
[3]; Parietal cortex
  K in, unidirectional transfer coefficient: 351.5 ± 9.8 µL/g/min
  PS, permeability–surface area product: 377.2 ± 11.3 µL/g/min
[3]; Remainder of brain tissue
  K in, unidirectional transfer coefficient: 311.2 ± 20.8 µL/g/min
  PS, permeability–surface area product: 326.5 ± 22.9 µL/g/min
[3]; Striatum
  K in, unidirectional transfer coefficient: 328.6 ± 41.9 µL/g/min
  PS, permeability–surface area product: 351.5 ± 48.1 µL/g/min
[3]; Sup. colliculus
  K in, unidirectional transfer coefficient: 404.9 ± 30.4 µL/g/min
  PS, permeability–surface area product: 419.6 ± 32.5 µL/g/min
[3]; rat, in vivo
  V d, corrected for sucrose space (vascular volume), control: 165.63 ± 10.40 µL/g
  time at which brain uptake (Vd) reached a maximum: ≤ 1 min
